Experimental data from US8008542B2, “Compositions, cells, and plants that include BKI1, a negative regulator of BRI1-mediated BR signaling” (The Salk Institute for Biological Studies, priority 2007, dated 2011).

Experiments:
Saur-AC1 = experiment: qRT-PCR of brassinosteroid-regulated gene Saur-AC1; format: in vivo, Arabidopsis; conditions: Plus BL (100 nM, 2.5 hrs)
Protocol: (§1) Plants were treated with 100 nM BL, or a mock treatment for 2.5 hrs. Total RNA was extracted using a Qiagen RNAeasy kit (Valencia, Calif.), and the first strand cDNA was synthesized using Invitrogen Superscript III First-Strand cDNA Synthesis kit. cDNAs were combined with SYBR master mix for PCR. Primers for each gene are shown as follows. CPD (At5g05690): 5′-TTACCGCAAAGCCATCCAA-3′ (SEQ ID NO:10) and 5′-[…]-3′ (SEQ ID NO:11); DWF4 (At3g50660): 5′-[…]-3′ (SEQ ID NO:12) and 5′-[…]-3′ (SEQ ID NO:13); Saur-AC1 (At4g38850): 5′-[…]-3′ (SEQ ID NO:14) and 5′-[…]-3′ (SEQ ID NO:15); and BKI1: 5′-GCTCCGGCGTCGATGA-3′ (SEQ ID NO:16) and 5′-[…]-3′ (SEQ ID NO:17). A U-box gene (At5g15400) was used to normalize the data (5′-[…]-3′ (SEQ ID NO:18) and 5′-TGCTGCCCAACATCAGGTT-3′ (SEQ ID NO:19)). PCR reactions were performed in triplicate or quadruplicate with a Bio-Rad iCycler, and the data were collected and analyzed with Bio-Rad MyiQ Single-Color Real-Time PCR Detection System.

[1] = tested on: plasma membrane-association of BKI1-YFP; experiment: Subcellular localization of BKI1-YFP in root tip cells (confocal); format: cell-based, Arabidopsis; conditions: for plasma membrane-association of BKI1-YFP following BL treatment: wild-type background, grown on 1 μM BRZ220, treated with 1 μM BL
Protocol: To investigate where in the pathway BKI1 acts, we examined the subcellular localization of the BKI1-YFP fusion protein in plants. BKI1-YFP was localized to both the plasma membrane and the cytosol in root tip cells (FIG. 3A). When the BKI1-YFP line was grown on medium containing 1 μM BRZ220, which reduces the levels of endogenous brassinosteroids (22), the fluorescent signal on the cell surface was enhanced (FIG. 3B).
In FIG. 3A, BKI1-YFP is localized to the plasma membrane and cytosol on MS medium. In FIG. 3B, BRZ220 enhances the association of BKI1-YFP to the plasma membrane. Seedlings were grown on MS medium containing 1 μM BRZ220. In FIG. 3C, BL enhances BKI1-YFP dissociation from the plasma membrane. Seedlings were grown on MS medium containing 1 μM BL. […] Seedlings were grown on MS medium containing 1 μM of BRZ220 and treated with 1 μM BL. J-L. BKI1-YFP is associated with the plasma membrane in bri1-116. Seedlings were grown on MS medium containing 1 μM of BRZ220. bri1-116 is a null allele of BRI1 (19). […] Seedlings were grown on MS medium containing 1 μM BL. […] Seedlings were grown on MS medium containing 1 μM BRZ220. 3D, G, J, M, and P are untreated; E, H, K, N, and Q are treated with BL for 5 min, and F, I, L, O, and R are treated with BL for 10 min.
Seedlings were grown on MS medium containing 1 μM of BRZ220. The time of BL treatment is indicated. Top panels: BKI1-YFP; Lower panels: myriBKI1-YFP. […] Immunoblots with anti-GFP show levels of myriBKI1-YFP and BKI1-YFP. Bottom band: loading control. […] The total ^35S-Met labeled BRI1-KD-HIS co-precipitated by GST-BAK1-KD was defined as “1”. Five replicates were conducted. Error bars indicate standard error. 1, GST-BAK1-KD±35S-BRI1-KD-HIS; 2, GST-BAK1-KD+35S-BRI1-KD-HIS+10 μM of MBP; 3, GST-BAK1-KD+35S-BRI1-KD-HIS+10 μM of MBP-BKI1. […] Without BL, BRI1 kinase is kept in a basal state by both its own carboxyl terminal domain and by an interaction with BKI1. Brassinosteroid binding to the extracellular domain of BRI1 induces a conformational change of the kinase domain, leading to the phosphorylation of the C-terminal domain of BRI1 and BKI1, the dissociation of BKI1 from the plasma membrane, and the release of autoinhibition of BRI1. These events lead to the full activation of BRI1 and its association with BAK1 or other substrates. Plasma membrane-dissociated BKI1 may also regulate other unknown components in the brassinosteroid signaling cascade. BSU1 is a nuclear serine/threonine phosphatase involved in the dephosphorylation of BES1 (27).
The predicted full-length BKI1 was amplified by RT-PCR from total RNA of Col-0 using Pfu DNA polymerase (Stratagene), and cloned into the binary vector pCHF3 that contains a 35S promoter (10), three copies of FLAG ([…], SEQ ID NO:8) fused at the Cterminal end, and the RubisCo small subunit (rbcS) terminator. For the YFP fusion construct, full length BKI1 was cloned into a modified pCHF3 containing a 35S promoter and a C-terminal YFP tag. For the myriBKI1-YFP construct, a myristoylation site (MGICMSR, SEQ ID NO:9) was added to the N-terminus of BKI1-YFP via PCR. All constructs were confirmed by sequencing and transformed into Col-0 plants. The subcellular localization of BKI1-YFP and myriBKI1-YFP was visualized and photographed using a Leica TCS SP2 confocal microscope (Leica Microsystems, Germany).

DWF4 = experiment: qRT-PCR of brassinosteroid-regulated gene DWF4; format: in vivo, Arabidopsis; conditions: 100 nM BL for 2.5 hrs
Protocol: as §1

Arabidopsis seedlings = experiment: Hypocotyl length response to BL, short-day grown seedlings; format: in vivo
CPD = experiment: qRT-PCR of brassinosteroid-regulated gene CPD; format: in vivo, Arabidopsis; conditions: 100 nM BL for 2.5 hrs
Protocol: as §1

BES1 = BES1 phosphorylation status by immunoblot with anti-BES1; format: in vivo, Arabidopsis
Protocol: To determine whether the growth inhibitory effect caused by the over-expression of BKI1-YFP was due to an inhibition of BRI1 signaling, we tested the phosphorylation status of a downstream biochemical marker, BES1 (10), by immunoblot analysis.
Seedlings were grown in short day photoperiods for seven days. At least ten short-day grown seedlings were measured. In FIGS. 2A-B the pBKI1::GUS line was used as a control (control). RNAi-2 and RNAi-7 were two independent RNAi knockdown lines for BKI1. In FIG. 2 C-E, phenotype of plants overexpressing BKI1-FLAG, with Col-0 (left) and a BKI1-FLAG line (right) are shown. 2C. Short-day grown seedlings. 2D. Long-day grown seedlings. 2E. Long-day grown adult plants. In FIG. 2F, leaf morphology of seedlings grown in short days. Col-0 (right) and a BKI1-FLAG line (left) are shown. In FIG. 2G, over-expression of BKI1-YFP leads to a reduced response (hypocotyl length) to BL. At least twenty short-day grown seedlings were measured. In FIG. 2H, over-expression of BKI1-YFP leads to an enhanced response to BRZ220. At least twenty dark-grown seedlings were measured. In FIG. 2I, over-expression of BKI1-YFP results in reduced accumulation of dephosphorylated BES1. Immunoblots with anti-BES1 show levels of phosphorylated BES1 (pBES1) and dephosphorylated BES1. Bottom band: loading control. In FIG. 2J, Over-expression of BKI1-YFP alters the expression of BR-regulated genes. […]

[2] = target: T1, kinase domain of NIK1 (NIK1-KD) in pDBLeu (GAL4-DB fusion) (UniProt P04386 1-147; Q9LFS4 270-638, limits assumed); experiment: yeast two-hybrid
T1 construct: domain: GAL4-DB;domain: kinase domain; Yeast two-hybrid bait

[3] = target: full-length BIN2 in pDBLeu (GAL4-DB fusion) (UniProt P04386 1-147; Q39011 1-380); experiment: yeast two-hybrid
[4] = target: T2, BRL3 kinase domain (BRL3-KD) fused with GAL4-DB (in pDBLeu) (UniProt P04386 1-147; Q9LJF3 794-1164, limits assumed); experiment: yeast two-hybrid
T2 construct: domain: GAL4-DB;domain: kinase domain; Yeast two-hybrid bait

[5] = target: T3, CLV1 kinase domain (CLV1-KD) fused with GAL4-DB (in pDBLeu) (UniProt P04386 1-147; Q9SYQ8 660-980, limits assumed); experiment: yeast two-hybrid
T3 construct: domain: GAL4-DB;domain: kinase domain; Yeast two-hybrid bait

[6] = target: T4, kinase domain of BAK1 (BAK1-KD) in pDBLeu (GAL4-DB fusion) (UniProt P04386 1-147; Q94F62 247-615, limits assumed); experiment: yeast two-hybrid
T4 construct: domain: GAL4-DB;domain: kinase domain; Yeast two-hybrid bait

[7] = target: full length TTL in pDBLeu (GAL4-DB fusion) (Arabidopsis, UniProt P04386 1-147; Q9LVM5 1-324, limits assumed); experiment: yeast two-hybrid
[8] = target: T5, BRL1 kinase domain (BRL1-KD) fused with GAL4-DB (in pDBLeu) (UniProt P04386 1-147; Q9ZWC8 798-1166, limits assumed); experiment: yeast two-hybrid
T5 construct: domain: GAL4-DB;domain: kinase domain; Yeast two-hybrid bait

CC(C)[C@H](C)[C@@H](O)[C@H](O)[C@@H](C)[C@H]1CC[C@H]2[C@@H]3COC(=O)[C@H]4C[C@H](O)[C@H](O)C[C@]4(C)[C@H]3CC[C@]12C [BL, brassinolide]
expression of Saur-AC1 (RNA level, WT without BL = 1.00) (Saur-AC1; BKI1-YFP line): 1.65±0.11
expression of Saur-AC1 (RNA level, WT without BL = 1.00) (Saur-AC1; WT): 4.68±0.31
BL-induced dissociation of BKI1-YFP from the plasma membrane ([1]; bri1-104 (kinase inactive allele)): no BL-induced dissociation
BL-induced dissociation of BKI1-YFP from the plasma membrane ([1]; bri1-116 homozygous seedlings (null allele)): failed to induce the dissociation
plasma membrane-association of BKI1-YFP ([1]; grown on medium containing 1 μM BL): reduced
plasma membrane-association of BKI1-YFP following BL treatment ([1]; 10 minutes): undetectable
plasma membrane-association of BKI1-YFP following BL treatment ([1]; after 5 minutes): almost completely gone
expression of DWF4 (RNA level, WT without BL = 1.00) (DWF4; BKI1-YFP line): 0.80±0.06
expression of DWF4 (RNA level, WT without BL = 1.00) (DWF4; WT): 0.27±0.01
response to BL treatment (hypocotyl length) (Arabidopsis seedlings; det2-1 brassinosteroid biosynthetic mutant): highly responsive
sensitivity to BL applications compared to wild type (fold less sensitive) (Arabidopsis seedlings; plants over-expressing BKI1-YFP, hypocotyl length): at least 100 fold
expression of CPD (RNA level, WT without BL = 1.00) (CPD; BKI1-YFP line): 0.83±0.05
expression of CPD (RNA level, WT without BL = 1.00) (CPD; WT): 0.47±0.03
accumulation of dephosphorylated BES1 (BES1; det2-1, 0.1 μM BL for one hour): strongly stimulated
accumulation of dephosphorylated BES1 (BES1; wild type, 0.1 μM BL for one hour): strongly stimulated

B1: BKI1 fused with GAL4-AD (BKI1-pEXAD502), full-length BKI1 (other, not shown: large carriers)
chain: METNLQQVKNSSQTFSEKQNPKQEASPSPISSTCSSPSHDFSFTISLQPLSSSSKHISPTLRSPSKTTSSYQQTDPFAVDLSPADEIFFHGHLLPLHLLSHLPVSPRTSTGSYNDGFTLPVKDILPDQPTNNNNNTENAITNISTEAKDDNTEDKAEGEIRVKTKPIKSFSLFGLSKWRKGFESNEREQEQQQQKIKKPMSLDLSHAVKKYIRMLFQKRGNGTQFWNRRQTSSYSFSSSLMGPNGNSKTMINGSYNKRDLIRGRRGELFSAPASMRTSPTNSGHLRVSTAGLSSSSGSTSSSSSDSTMEELQAAIQAAIAHCKNSSAVDRDDKVKDS
notes: Yeast two-hybrid prey; it is put N-terminal here; also called BKI1-FL; At5g42750
binding result [2]: no binding
binding result [3]: no binding
binding result [4]: no binding
binding result [5]: no binding
binding result [6]: no binding
binding result [7]: no binding
binding result [8]: no binding
